{"source": "patent US10434074B2", "about": "“Peptide and small molecule agonists of EPHA and uses thereof” (CASE WESTERN RESERVE UNIVERSITY, priority 2004, dated 2019)", "key": {"[1]": {"target": "T1, EphA2 (Homo sapiens, UniProt P29317)", "T1 sequence (P29317 24-976)": "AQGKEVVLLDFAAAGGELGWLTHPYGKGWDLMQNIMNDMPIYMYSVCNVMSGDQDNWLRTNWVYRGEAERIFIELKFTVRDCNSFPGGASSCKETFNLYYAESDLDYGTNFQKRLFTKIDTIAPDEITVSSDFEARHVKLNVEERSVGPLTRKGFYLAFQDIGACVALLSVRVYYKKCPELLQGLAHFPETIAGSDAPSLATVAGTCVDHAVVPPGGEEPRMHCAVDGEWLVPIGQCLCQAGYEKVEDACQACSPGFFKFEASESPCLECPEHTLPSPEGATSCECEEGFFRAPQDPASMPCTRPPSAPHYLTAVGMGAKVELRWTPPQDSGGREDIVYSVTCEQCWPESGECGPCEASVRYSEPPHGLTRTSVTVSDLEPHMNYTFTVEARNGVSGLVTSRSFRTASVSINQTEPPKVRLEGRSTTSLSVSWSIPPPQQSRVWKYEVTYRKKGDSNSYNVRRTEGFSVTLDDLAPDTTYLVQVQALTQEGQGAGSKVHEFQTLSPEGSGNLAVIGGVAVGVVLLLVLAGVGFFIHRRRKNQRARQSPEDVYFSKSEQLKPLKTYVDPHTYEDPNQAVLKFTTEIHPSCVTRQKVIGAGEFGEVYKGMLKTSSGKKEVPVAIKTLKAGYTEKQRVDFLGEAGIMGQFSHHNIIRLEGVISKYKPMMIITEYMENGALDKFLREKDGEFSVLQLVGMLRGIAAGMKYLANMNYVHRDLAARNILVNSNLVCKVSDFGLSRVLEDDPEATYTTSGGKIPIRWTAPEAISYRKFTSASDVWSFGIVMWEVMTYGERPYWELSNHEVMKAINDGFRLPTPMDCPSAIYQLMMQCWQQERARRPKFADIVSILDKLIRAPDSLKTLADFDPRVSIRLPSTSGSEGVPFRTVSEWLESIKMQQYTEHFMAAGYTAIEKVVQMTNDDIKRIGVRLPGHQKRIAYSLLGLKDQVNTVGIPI", "test": "EphA2 tyrosine phosphorylation (activation) in PC3 cells, immunoprecipitation and anti-phosphotyrosine blot", "format": "cell-based", "parameters": "We have previously identified EphA2 as the primary EphA kinase expressed in PC-3 cells; endogenous in cells; host or cells: PC-3 (PC3) and DU-145 cells", "details": "for EphA2 tyrosine phosphorylation: several different cell lines; for EphA2 activation (agonist function): PC-3 cells, PY99 blot", "protocol": "FIG. 9 illustrates EP1 is an EphA2 Kinase Agonist. PC3 cells (1×10^6 cells/ml) were stimulated with different concentrations of EP1-Fc, GST-EP1, or ephrin-A1-Fc for 10 min. EphA2 was precipitated with anti-EphA2. The immune complex was blotted for PY to detect EphA2 activation (top panel), or for EphA2 to show equal loading (lower panel). Data represents one of three similar experimental results.\nFIG. 15 illustrates Identification of EP1 residues critical for EphA2 activation. Four out of five EP1 residues that align with receptor-binding regions of ephrins are critical for EphA2 activation. Mutation to alanine was performed at the indicated positions (see letters in FIG. 15 for reference), and the resultant EP1-Fc mutants were used to stimulate PC3 cells for 10 min at […] for ability to activate EphA2.\nPC-3 cells were stimulated with the indicated concentration of dobutamine. EphA2 was immunoprecipitated and tested for activation status by blotting with anti-phosphotyrosine (PY99).\nCells cultured in 6 well plates at 70-80% confluence were stimulated with 0.5 μg/ml Fc, 1 μg/ml epnrinA1-Fc or 20 ng/ml HGF/SF or their combinations as indicated. After stimulation, cells were lysed in RIPA buffer (20 mM Tris, pH7.4, 125 mM NaCl, 20 mM NaF, 0.1% SDS, 10% glycerol, 0.5% sodium deoxycholate, and 1% TX-100, 0.5 mM Na3VO4) containing protease inhibitors (1 mM phenylmethylsulphonyl fluoride, and 2 μg/ml each of aprotinin and leupeptin). Cell lysates were clarified by centrifugation at 13,000 rpm for 5 min. Immunoprecipitation was carried out by adding anti-EphA2 antibody to clarified cell lysates and incubated for 1 hour at 4° C. The immunocomplex was captured using γ-bind beads (Pharmacia). Cell lysates or precipitated proteins were separated on 4-20% Tris-glycine gels (Invitrogen) and transferred to Immobilon-P PVDF membranes (Millipore). […] For quantitative analysis, band densities were measured using KODAK 1D imagine analysis software (Eastman Kodak Company)."}, "[2]": {"system": "pRNS-1 prostate epithelial cells", "test": "Clonal growth, crystal violet staining", "format": "cell-based", "details": "10 days", "protocol": "About 80 pRNS-1 prostate epithelial cells were seeded into each well on 12-well dishes in the presence of indicated concentrations of ephrin-A1-Fc. Cells were cultured for 10 days. Clonal growth was visualized by crystal violet staining."}, "[3]": {"system": "GFP-PC-3 cells", "test": "PC3 xenograft growth in nude mice", "format": "in vivo", "parameters": "s.c. tumor growth: dose or concentration left out as unconfirmed", "details": "for s.c. tumor growth: vs human IgG", "from_the_text": "Frozen sections were stained with biotinylated rabbit anti-human Fc, and HRP-conjugated streptoavidin."}, "[4]": {"system": "PC3 or pRNS-1 cells", "test": "3H-thymidine incorporation", "format": "cell-based", "details": "overnight stimulation", "protocol": "Subconfluent PC3 or pRNS-1 cells were stimulated with the indicated reagents overnight. Next day cells were labeled with ^3H-thymidine for 2 hours. ^3H-thymidine incorporation into isolated DNA synthesis was determined by scintillation counting."}, "[5]": {"target": "T1, EphA2", "test": "Precipitation of 125I-labeled PC3 cell proteins / Western blot (binding specificity)", "parameters": "We have previously identified EphA2 as the primary EphA kinase expressed in PC-3 cells; endogenous in cells; host or cells: PC-3 (PC3)", "details": "PC3 cell lysates", "protocol": "FIGS. 8(A-B) illustrate Specific Binding of EP1-Fc to EphA2 Receptor. A: ^125I labeling of PC3 cells. PC3 cells (10×10^6) were labeled with 125I (0.5 mCi). Then, cell lysates were incubated with EP1-Fc fusion peptide, ephrin-A1-Fc (EA1-Fc), or human Fc as indicated. Equal amount of cell lysate was used in each experimental group. […] B: Western Blotting Analysis. PC3 cell lysates were incubated with EP1-Fc fusion protein, ephrin-A1 protein, or human Fc. The immune complexes were blotted with anti-EphA2. EP1 specifically precipitated EphA2."}, "[6]": {"system": "PC3 cells", "test": "Cell rounding", "format": "cell-based, human", "details": "10 min", "protocol": "PC3 cells cultured on coverslips were stimulated with the indicated concentrations of ephrinA1-Fc, EP1-Fc of Fc for 10 min. Cells were then fixed and photographed."}, "[7]": {"target": "EphA2 kinase ligand-binding domain (Homo sapiens, UniProt P29317)", "sequence (P29317 28-206 limits assumed)": "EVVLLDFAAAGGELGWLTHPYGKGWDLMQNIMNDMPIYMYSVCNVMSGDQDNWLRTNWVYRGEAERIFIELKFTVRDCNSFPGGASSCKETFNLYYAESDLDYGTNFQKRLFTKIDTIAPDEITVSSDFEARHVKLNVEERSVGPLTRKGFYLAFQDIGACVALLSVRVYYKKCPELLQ", "test": "BIAcore binding to immobilized EphA2 ligand-binding domain", "details": "EphA2 LBD immobilized on sensor chip", "protocol": "A) EphA2 activation by labetalol. […] The increasing concentrations of labetalol (0, […], 1.25 mM and 2.5 mM) were injected over EphA2 kinase ligand-binding domain immobilized on the sensor chip.\nA) Doxazosin activates EphA2."}, "[8]": {"system": "integrin-mediated cell adhesion", "test": "Integrin-mediated cell adhesion to fibronectin", "format": "cell-based"}, "[9]": {"system": "ERK1/2", "test": "Inhibition of ERK1/2 (MAPK) in PC3 cells, anti-p-ERK1/2 blot", "format": "cell-based, human", "from_the_text": "FIG. 11 illustrates Activation of EphA2 downstream signaling by EP1-Fc. PC3 cells were stimulated with the indicated concentrations of ephrinA1-Fc or EP1-Fc fusion proteins and lysed in RIPA buffer. EphA2 activation status was examined by immunoprecipiting EphA2 and blotting for phosphotyrosine or EphA2 itself (top panel). Inhibition of ERK1/2, a downstream signaling event of EphA2 characterized in our lab, was examined by blotting total cell lysates with anti-p-ERK1/2."}, "[10]": {"system": "EphA2", "details": "several breast cancer cell lines; cited from earlier work"}}, "note": "Entries after “also recorded” stand apart in the source; their conditions may differ. Where no end group is shown, it is not given here."}
{"molecule": "EP1-Fc: recombinant EP1 fused to Fc, dimeric (RRCVWSTNVYSMEPALFCAA; not fully specified; cysteine pairing not given here; also: fused to Fc, dimeric)", "values": [{"measurement": "EphA2 tyrosine phosphorylation", "setting": "[1]", "value": "induces dose-dependent EphA2 tyrosine phosphorylation"}, {"measurement": "clonal cell growth", "setting": "[2]", "value": "Inhibition of cell growth"}, {"measurement": "targeting to tumors", "setting": "[3]; frozen sections stained with anti-human Fc", "value": "target to GFP-PC-3 tumors"}, {"measurement": "tumor growth after three weeks of treatment", "setting": "[3]; i.p.", "value": "lack of effects after three weeks of treatment"}, {"measurement": "s.c. tumor growth", "setting": "[3]; i.p.", "value": "moderate inhibitory effects on PC3 xenograft growth"}, {"measurement": "s.c. tumor growth", "setting": "[3]; i.p., listed as Ep1-Fc", "value": "could have suppressive effect on the growth of prostate cancer xenograft"}, {"measurement": "cell proliferation / growth", "setting": "[4]", "value": "Inhibition of cell proliferation"}, {"measurement": "specificity of binding among cell surface proteins", "setting": "[5]", "value": "only bound to EphA2"}, {"measurement": "cell morphology (rounding)", "setting": "[6]", "value": "adapt a round morphology; also recorded: induced PC3 cell rounding"}]}
{"molecule": "COc1cc2nc(N3CCN(C(=O)C4COc5ccccc5O4)CC3)nc(N)c2cc1OC", "note": "(stereo not shown) [Doxazosin]", "values": [{"measurement": "EphA2 activation (agonist function)", "setting": "[1]", "value": "EphA2 agonists"}, {"measurement": "BIAcore binding to EphA2", "setting": "[7]", "value": "direct binding"}]}
{"molecule": "CC(CCc1ccccc1)NCC(O)c1ccc(O)c(C(N)=O)c1", "note": "(stereo not shown) [Labetalol]", "values": [{"measurement": "EphA2 activation (agonist function)", "setting": "[1]", "value": "EphA2 agonists"}, {"measurement": "BIAcore binding to EphA2", "setting": "[7]", "value": "binding curves for interaction of labetalol with EphA2 kinase"}]}
{"molecule": "EphA2-binding peptide from X2CX14CX2 phage display library, SEQ ID NO: 1, RRCVWSTNVYSMEPA LFCAA (RRCVWSTNVYSMEPALFCAA) [EP1]", "values": [{"measurement": "EphA2 tyrosine phosphorylation", "setting": "[1]", "value": "binds to EphA2 without activating it"}, {"measurement": "integrin function and cell adhesion", "setting": "[8]", "value": "suppressed integrin function and causes reduced cell adhesion"}, {"measurement": "cell proliferation / growth", "setting": "[4]", "value": "inhibited cancer cell growth"}, {"measurement": "specificity of binding among cell surface proteins", "setting": "[5]", "value": "EphA2 was the only cell surface protein that was targeted by EP1"}, {"measurement": "mitogen-activated protein kinase (MAPK)", "setting": "[9]", "value": "inhibited mitogen-activated protein kinase"}]}
{"molecule": "GST-EP1: recombinant EP1 fused to GST (RRCVWSTNVYSMEPALFCAA; cysteine pairing not given here; also: fused to GST)", "values": [{"measurement": "EphA2 tyrosine phosphorylation", "setting": "[1]", "value": "induces dose-dependent EphA2 tyrosine phosphorylation"}]}
{"molecule": "CC(CCc1ccc(O)cc1)NCCc1ccc(O)c(O)c1", "note": "(stereo not shown) [Dobutamine]", "values": [{"measurement": "EphA2 activation (agonist function)", "setting": "[1]", "value": "EphA2 agonists"}]}
{"molecule": "N#CC(=C(/N)Sc1ccccc1N)/C(C#N)=C(/N)Sc1ccccc1N", "note": "[U1026]", "values": [{"measurement": "EphA2 expression", "setting": "[10]", "value": "reduced EphA2 expression"}]}
{"molecule": "(di-meo-isoquinolin-1-ylmethyl)-et-di-meo-pyrido(2,1-a)isoquinolin, hydrobromide S120103", "values": [{"measurement": "EphA2 activation (agonist function)", "setting": "[1]", "value": "EphA2 agonistic compound"}]}
